Broadly, the EC50 is the concentration needed to bring the measured effect to its halfway point. For orientation: IC50 means the concentration at which inhibition is half-maximal.

The source made the active and inactive calls.

The results in this text go back to ChEMBL document CHEMBL1201862, “PubChem BioAssay data set” (2004).

The first assay deals with T1, Heat shock factor protein 1 (Mus musculus, UniProt P38532).
T1 sequence (P38532 whole entry): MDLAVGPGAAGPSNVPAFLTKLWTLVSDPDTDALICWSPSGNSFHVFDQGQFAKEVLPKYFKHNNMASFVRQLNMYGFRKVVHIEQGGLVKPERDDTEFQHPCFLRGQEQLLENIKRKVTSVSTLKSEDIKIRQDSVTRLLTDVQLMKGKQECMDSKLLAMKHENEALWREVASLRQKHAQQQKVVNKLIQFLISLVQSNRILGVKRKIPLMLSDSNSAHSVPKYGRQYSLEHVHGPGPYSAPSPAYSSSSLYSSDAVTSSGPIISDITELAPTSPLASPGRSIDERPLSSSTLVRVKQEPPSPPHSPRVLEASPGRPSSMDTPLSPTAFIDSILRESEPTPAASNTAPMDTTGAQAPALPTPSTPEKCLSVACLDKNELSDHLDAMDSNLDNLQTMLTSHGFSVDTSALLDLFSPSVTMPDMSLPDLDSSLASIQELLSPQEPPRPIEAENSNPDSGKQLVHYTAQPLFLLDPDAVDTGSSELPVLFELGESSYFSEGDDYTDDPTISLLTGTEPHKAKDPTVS
Description: HSF1 potentiators in luciferase reporter cells, confirmation, cell-based, NIH3T3, luminescence, dose retest (AID 435004).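 Further: stress induced by proteasome inhibitor MG132 added 30 min after compound; luciferase reporter driven by HSF1 response element in NIH3T3 cells; actives raise luminescence as potentiators of the MG132 stress response.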 Type of assay: functional.
Settings: not given
(Reporter assays use an easily measured gene product as a stand-in for the process of interest.)
Turning to `Oc1nc(N2CCN(c3ccccc3)CC2)nc2c1CCC2`, the EC50 is > 260 µM (inactive). For the compound `Clc1ccc(CNC2CCN(Cc3ccccc3)CC2)cc1`, the EC50 is > 260 µM (inactive). Same read-out and setting: in the case of `CCOc1cc(N2CCOCC2)c(OCC)cc1NC(=O)Cc1cccc2ccccc12` it was > 260 µM (inactive); in that of `CCOC(=O)c1c(C)[nH]c(C)c1S(=O)(=O)N1CCN(c2cccc(C)c2)C(C)C1` (stereo unspecified), > 260 µM (inactive). In the case of `COc1ccc(NS(=O)(=O)c2cc(NC(=O)c3cnccn3)ccc2N2CCCC2)cc1`, the EC50 was > 260 µM (inactive). Same read-out and setting: in the case of `CCCc1cc(=O)oc2cc(C)c(CN3CCCC3)c(O)c12` it was > 260 µM (inactive). On the same count and under the same terms, in the case of `O=S(=O)(Nc1cccc2ccccc12)c1cccc2nonc12` it was > 260 µM (inactive); in that of `CC(C)C(C(=O)NCc1ccccc1)N(CC1CCCO1)C(=O)CNS(=O)(=O)c1ccccc1` (stereo unspecified), > 260 µM (inactive). Regarding `O=S(=O)(c1ccc(-n2cnnn2)cc1)N1CCNCC1`, the EC50 was > 260 µM (inactive).

On to `COCCNC(=O)C(c1ccc(C)cc1)N(C(=O)CCC(=O)Nc1ccccn1)c1ccccc1C` (stereo unspecified), for which the EC50 was > 260 µM (inactive). The same measure, in the same setting: the value for `C=CCNC(=O)CSc1nnc(C(CC)N(C)C)n1C1CCCCC1` (stereo unspecified) was > 260 µM (inactive); that for `COc1ccc(C2/C=C\CN(S(=O)(=O)/C=C/c3ccccc3)[C@H](Cc3ccccc3)C(=O)N2Cc2ccc(F)cc2)cc1` (stereo partly specified) was > 260 µM (inactive).

Test system in another assay: not listed separately
Description: growth suppression of beta-catenin-knockout colon cells, dose response, cell-based, HCT116, human colon tumor (AID 1045).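 Further: HCT116 colon tumor cells with beta catenin knocked out; cells exposed to compound for 60 hours.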
Settings: not given
Type of assay: functional.
Consider `CC(C)(C)c1nn(-c2ccccc2)c2nc(O)c(CNCc3ccco3)cc12`, for which the EC50 was 9.2 µM (active).

The target in a further assay is T2, Protein RecA (Mycobacterium tuberculosis, UniProt P9WHJ3).
T2 sequence (P9WHJ3 whole entry): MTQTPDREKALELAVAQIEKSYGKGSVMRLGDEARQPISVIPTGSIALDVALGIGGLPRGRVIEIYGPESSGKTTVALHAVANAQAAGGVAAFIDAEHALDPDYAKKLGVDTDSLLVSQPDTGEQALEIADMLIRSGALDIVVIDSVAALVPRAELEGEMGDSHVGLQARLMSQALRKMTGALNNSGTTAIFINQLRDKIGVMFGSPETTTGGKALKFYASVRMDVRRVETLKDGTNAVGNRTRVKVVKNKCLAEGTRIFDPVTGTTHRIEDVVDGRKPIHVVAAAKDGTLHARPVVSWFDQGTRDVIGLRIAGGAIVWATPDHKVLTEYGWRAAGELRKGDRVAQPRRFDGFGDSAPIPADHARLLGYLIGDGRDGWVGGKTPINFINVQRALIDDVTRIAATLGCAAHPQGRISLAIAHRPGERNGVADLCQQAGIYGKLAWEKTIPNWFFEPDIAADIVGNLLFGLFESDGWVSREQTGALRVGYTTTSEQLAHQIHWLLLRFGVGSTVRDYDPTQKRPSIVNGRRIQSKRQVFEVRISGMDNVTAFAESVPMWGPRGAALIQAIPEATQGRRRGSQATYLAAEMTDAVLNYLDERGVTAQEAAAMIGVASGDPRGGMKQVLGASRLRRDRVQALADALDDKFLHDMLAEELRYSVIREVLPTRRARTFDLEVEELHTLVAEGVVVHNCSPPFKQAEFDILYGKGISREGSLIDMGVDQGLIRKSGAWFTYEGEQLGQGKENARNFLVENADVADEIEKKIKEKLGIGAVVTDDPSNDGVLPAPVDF
Description: Fluorescence Cell-Free Homogeneous Dose Retest to Identify Inhibitors of RecA-Intein Splicing Activity. [Related pubchem assays (depositor defined):AID2097, AID2223, AID489010, AID492950]. Type of assay: functional.
Settings: not given
As for `ONc1cccnc1-n1nc(C(F)(F)F)cc1C(F)(F)F`, the 50% effective concentration (EC50) is > 380 µM (inconclusive).

The next assay has as its system H9c2. As to the kind of experiment: cells. In kind it is functional, cell-based. As to conditions: Rattus norvegicus, H9c2, Myocardium.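 Further: confirmatory concentration-response retest of ultra-high-throughput screening hits for modulation of myocardial damage; cell death induced by hydrogen peroxide oxidative stress; compound pretreatment for 60 min then peroxide exposure for 2 h; potency is for protecting the cells against peroxide damage rather than for killing them.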
In the case of `Oc1nc(N2CCN(c3ccccc3)CC2)nc2c1CCC2`, the IC50 was 54.4 µM (inactive). The same measure, in the same setting: in the case of `COc1ccc(S(=O)(=O)N(CCCN2CCCC2=O)Cc2cc3cc(C)c(C)cc3nc2O)cc1` it was > 79 µM (inactive). As for `O=C(O)c1nn(CC(=O)N2CCN(c3ccccc3)CC2)c(=O)c2ccccc12`, the IC50 is 31 µM (inactive).

For `Cc1c(C=O)c2ccccn2c1C(=O)c1ccc(Cl)c([N+](=O)[O-])c1`, the IC50 was > 79 µM (inactive).

On to `O=c1cc(-c2ccc([N+](=O)[O-])cc2)c2ccc(O)cc2o1`, for which the IC50 is > 79 µM (inactive).

For `CC(C)(C)c1nn(-c2ccccc2)c2nc(O)c(CNCc3ccco3)cc12`, the IC50 was > 79 µM (inactive). With `O=C(COc1cccc(NC(=O)c2cccc([N+](=O)[O-])c2)c1)c1ccc(F)cc1`, the IC50 was > 79 µM (inactive). On the same count and under the same terms, the value for `COC(=O)c1c(C)[nH]c(C(=O)COc2ccc3ccc(=O)oc3c2)c1C` was > 79 µM (inactive); that for `CC1(NC(=O)CCc2nc(O)c3ccccc3n2)CCS(=O)(=O)C1` (stereo unspecified) was > 79 µM (inactive). With `O=C(N/N=C/c1ccccn1)c1cc(C2CC2)nc2ccccc12`, the IC50 is > 79 µM (inactive). `CCSc1nnc(N)s1`: the IC50 was > 79 µM (inactive).

Test system in another assay: not listed separately
Description: growth suppression of PTEN-null colon cells, dose response, cell-based, HCT116 PTEN knockout (AID 1047).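 Further: HCT116 colon tumor cells with PTEN knocked out; cells exposed to compound for 60 hours before readout; potency for loss of cell viability measured by luminescence.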 Type of assay: functional.
Settings: not given
Turning to `CC(C)(C)c1nn(-c2ccccc2)c2nc(O)c(CNCc3ccco3)cc12`, the concentration giving a half-maximal response (EC50) is 7.45 µM (active).
